Measured values published in ChEMBL document CHEMBL1201862, “PubChem BioAssay data set” (2004).
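Step 1: Grow cells in 96-well plates. Step 2: Expose to compound for 48 hours at 5 concentrations. Step 3: Interpolate endpoints linearly; if unreached, use highest concentration. Here, GI50 denotes the concentration required for 50% inhibition of growth.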 Active and inactive are the calls of the source. No stated cut-off is given here; in the data, active = GI50 up to about 1.1 µM and inactive = higher.

Experiments:
Test in all cases: DTP human tumour cell line panel, 48 h
SNB-75 = test system: SNB-75
IGROV-1 = test system: IGROV-1
HCT-116 = test system: HCT-116
RPMI-8226 = test system: RPMI-8226
HOP-62 = test system: HOP-62
SF-539 = test system: SF-539
Malme-3M = test system: Malme-3M
COLO 205 = test system: COLO 205
SK-MEL-5 = test system: SK-MEL-5
SN12C = test system: SN12C
OVCAR-4 = test system: OVCAR-4
U-251 = test system: U-251
SK-OV-3 = test system: SK-OV-3
KM12 = test system: KM12

Measured: GI50

CCOC(=O)C(C)(C)Oc1ccc2c(C)c(-c3ccc(Cl)cc3)c(=O)oc2c1
inactive: SNB-75 35.8 µM | IGROV-1 75.9 µM | HCT-116 43 µM | RPMI-8226 22.6 µM | HOP-62 89.1 µM | SF-539 > 100 µM | Malme-3M 33.3 µM | COLO 205 42.6 µM | SK-MEL-5 13.4 µM | SN12C > 100 µM | OVCAR-4 > 100 µM | U-251 42.4 µM

Cc1cc(C)c2c(c1C)CN1CN2Cc2c(C)c(C)cc(C)c21
inactive: SNB-75 21 µM | IGROV-1 > 100 µM | HCT-116 > 100 µM | RPMI-8226 > 100 µM | HOP-62 > 100 µM | SK-OV-3 > 100 µM | SF-539 > 100 µM | Malme-3M > 100 µM | KM12 > 100 µM | COLO 205 45.6 µM | SN12C > 100 µM | OVCAR-4 7.98 µM | U-251 5.18 µM

CSc1ccc2c(cc1=O)[C@@H](NC(=O)c1cc(O)c(O)c(O)c1)CCc1cc(O)c(O)c(O)c1-2
inactive: SNB-75 23.4 µM | HCT-116 16 µM | HOP-62 49.5 µM | SK-OV-3 > 100 µM | SF-539 24.7 µM | Malme-3M 30 µM | KM12 20.9 µM | COLO 205 28 µM | SK-MEL-5 19.8 µM | SN12C 18.1 µM | OVCAR-4 8.93 µM | U-251 18.6 µM

O=C1OCCC1C(O)C1c2ccccc2-c2ccccc21 (stereo unspecified)
inactive: SNB-75 > 100 µM | IGROV-1 > 100 µM | HCT-116 > 100 µM | RPMI-8226 > 100 µM | HOP-62 > 100 µM | SK-OV-3 > 100 µM | Malme-3M > 100 µM | KM12 > 100 µM | COLO 205 > 100 µM | SN12C > 100 µM | OVCAR-4 > 100 µM | U-251 > 100 µM

CCCCCCc1cc2c(C)c(C)c(=O)oc2cc1OCCCOc1cc2oc(=O)c(C)c(C)c2cc1CCCCCC
inactive: IGROV-1 > 100 µM | HCT-116 > 100 µM | RPMI-8226 > 100 µM | HOP-62 > 100 µM | SK-OV-3 > 100 µM | SF-539 > 100 µM | Malme-3M > 100 µM | KM12 > 100 µM | SK-MEL-5 > 100 µM | U-251 > 100 µM

NC(=O)COc1ccc(Br)cc1Br
inactive: SNB-75 52.1 µM | IGROV-1 > 100 µM | HCT-116 > 100 µM | RPMI-8226 51.9 µM | HOP-62 > 100 µM | SK-OV-3 > 100 µM | SF-539 > 100 µM | Malme-3M > 100 µM | KM12 85.3 µM | COLO 205 > 100 µM | SK-MEL-5 > 100 µM | SN12C > 100 µM | U-251 > 100 µM

CC#CC1/C(=C\C(=O)OC)CCCC1O (stereo unspecified)
inactive: SNB-75 > 100 µM | HCT-116 > 100 µM | HOP-62 > 100 µM | SK-OV-3 > 100 µM | SF-539 > 100 µM | Malme-3M > 100 µM | KM12 > 100 µM | SK-MEL-5 > 100 µM | SN12C > 100 µM | OVCAR-4 > 100 µM | U-251 > 100 µM

O=S(=O)(N/N=C\c1c2ccccc2[n+]([O-])c2ccccc12)c1ccc(Cl)cc1
inactive: SNB-75 26.1 µM | IGROV-1 > 100 µM | HCT-116 45.5 µM | RPMI-8226 > 100 µM | HOP-62 80 µM | SK-OV-3 > 100 µM | Malme-3M 53.1 µM | KM12 > 100 µM | COLO 205 > 100 µM | SK-MEL-5 > 100 µM | SN12C > 100 µM | OVCAR-4 33.3 µM | U-251 94.4 µM
